Several values for one entry are separate records, joined by “and”; a condition that tells them apart may be missing. Equal entries are not always repeated. Activity calls are given as the source filed them. No rule for the calls is given here.
Tested on: rodent lifetime carcinogenesis bioassay, tumor incidence TD50
Assay: chronic cancer bioassays in animals – CPDB, compiled studies (AID 1745844)

With `CC1=CC(=O)CC(C)(C)C1` the carcinogen call (mouse, strain B6C3F1, females, by gavage, site: any site (literature study), lesion: several types, types named in the paper, dosed 103 weeks, study length 104 weeks) was “negative (inactive)”, the TD50 (mouse, strain B6C3F1, females, by gavage, site: liver, lesion: hepatocellular adenoma + hepatocellular carcinoma + neoplastic nodule, dosed 103 weeks, study length 104 weeks) was 2740 mg/kg/day and the TD50 (mouse, strain B6C3F1, males, by gavage, site: all sites, lesion: leukemia, NOS + malignant lymphoma, histiocytic type + malignant lymphoma, mixed type + malignant lymphoma, lymphocytic type, dosed 103 weeks, study length 104 weeks) was 236 mg/kg/day. The TD50 (mouse, strain B6C3F1, males, by gavage, site: all sites, lesion: malignant lymphoma, histiocytic type + malignant lymphoma, mixed type + malignant lymphoma, lymphocytic type, dosed 103 weeks, study length 104 weeks) was 203 mg/kg/day, the TD50 (mouse, strain B6C3F1, males, by gavage, site: all sites, lesion: malignant lymphoma, histiocytic type, dosed 103 weeks, study length 104 weeks) was 244 mg/kg/day and the TD50 (mouse, strain B6C3F1, males, by gavage, site: liver, lesion: hepatocellular adenoma + hepatocellular carcinoma + neoplastic nodule, dosed 103 weeks, study length 104 weeks) was 573 mg/kg/day. It also gave a TD50 (mouse, strain B6C3F1, males, by gavage, site: liver, lesion: hepatocellular adenoma + hepatocellular carcinoma, dosed 103 weeks, study length 104 weeks) of 573 mg/kg/day, a TD50 (mouse, strain B6C3F1, males, by gavage, site: skin + subcutaneous tissue, lesion: fibroma + fibrosarcoma, dosed 103 weeks, study length 104 weeks) of 840 mg/kg/day and a TD50 (mouse, strain B6C3F1, males, by gavage, site: skin + subcutaneous tissue, lesion: fibroma + neurofibrosarcoma + fibrosarcoma + sarcoma, dosed 103 weeks, study length 104 weeks) of 882 mg/kg/day. The TD50 (mouse, strain B6C3F1, males, by gavage, site: skin + subcutaneous tissue, lesion: neurofibrosarcoma + fibrosarcoma + sarcoma, dosed 103 weeks, study length 104 weeks) was 1210 mg/kg/day, the TD50 (mouse, strain B6C3F1, males, by gavage, site: subcutaneous tissue, lesion: fibroma, dosed 103 weeks, study length 104 weeks) was 1210 mg/kg/day and the TD50 (mouse, strain B6C3F1, males, by gavage, site: subcutaneous tissue, lesion: fibrosarcoma + fibroma + neurofibrosarcoma + sarcoma, dosed 103 weeks, study length 104 weeks) was 703 mg/kg/day. The TD50 (mouse, strain B6C3F1, males, by gavage, site: subcutaneous tissue, lesion: fibrosarcoma + fibroma, dosed 103 weeks, study length 104 weeks) was 654 mg/kg/day, the TD50 (mouse, strain B6C3F1, males, by gavage, site: subcutaneous tissue, lesion: fibrosarcoma + neurofibrosarcoma + sarcoma, dosed 103 weeks, study length 104 weeks) was 1260 mg/kg/day and the TD50 (mouse, strain B6C3F1, males, by gavage, site: subcutaneous tissue, lesion: fibrosarcoma, dosed 103 weeks, study length 104 weeks) was 1170 mg/kg/day. The TD50 (rat, strain Fischer 344, females, by gavage, site: any site (literature study), lesion: several types, types named in the paper, dosed 103 weeks, study length 105 weeks) was 16600 mg/kg/day (inactive), the TD50 (rat, strain Fischer 344, males, by gavage, site: any site (literature study), lesion: several types, types named in the paper, dosed 103 weeks, study length 105 weeks) was 237 mg/kg/day and the TD50 (rat, strain Fischer 344, males, by gavage, site: kidney + preputial gland, lesion: tubular-cell adenoma + tubular-cell adenocarcinoma + carcinoma, NOS, dosed 103 weeks, study length 105 weeks) was 774 mg/kg/day. The TD50 (rat, strain Fischer 344, males, by gavage, site: kidney, lesion: tubular-cell adenoma + tubular-cell adenocarcinoma, dosed 103 weeks, study length 105 weeks) was 1210 mg/kg/day, the TD50 (rat, strain Fischer 344, males, by gavage, site: liver, lesion: hepatocellular adenoma + hepatocellular carcinoma + neoplastic nodule, dosed 103 weeks, study length 105 weeks) was 9080 mg/kg/day and the TD50 (rat, strain Fischer 344, males, by gavage, site: preputial gland, lesion: carcinoma, NOS, dosed 103 weeks, study length 105 weeks) was 2250 mg/kg/day.

In the case of `CC1=C(C(=O)OC(C)C)C(c2cccc([N+](=O)[O-])c2)C(C(=O)OC2CN(C(c3ccccc3)c3ccccc3)C2)=C(N)N1` (centres undefined), the carcinogen call (mouse, strain B6C3F1, females, by gavage, site: any site (literature study), lesion: several types, types named in the paper, dosed 78 weeks, study length 78 weeks) is reported as “negative (inactive)”, the carcinogen call (mouse, strain B6C3F1, females, by gavage, site: liver, lesion: hepatocellular adenoma, dosed 78 weeks, study length 78 weeks) is reported as “negative (inactive)” and the carcinogen call (mouse, strain B6C3F1, females, by gavage, site: liver, lesion: hepatocellular carcinoma, dosed 78 weeks, study length 78 weeks) is reported as “negative (inactive)”. The TD50 (mouse, strain B6C3F1, females, by gavage, site: lung, lesion: alveolar/bronchiolar adenoma, dosed 78 weeks, study length 78 weeks) was 217 mg/kg/day (inactive), the carcinogen call (mouse, strain B6C3F1, females, by gavage, site: lung, lesion: alveolar/bronchiolar carcinoma, dosed 78 weeks, study length 78 weeks) was “negative (inactive)” and the TD50 (mouse, strain B6C3F1, males, by gavage, site: any site (literature study), lesion: several types, types named in the paper, dosed 78 weeks, study length 78 weeks) was 83.5 mg/kg/day (inactive). For the same molecule, the carcinogen call (mouse, strain B6C3F1, males, by gavage, site: liver, lesion: hepatocellular adenoma, dosed 78 weeks, study length 78 weeks) was “negative (inactive)”, the carcinogen call (mouse, strain B6C3F1, males, by gavage, site: liver, lesion: hepatocellular carcinoma, dosed 78 weeks, study length 78 weeks) was “negative (inactive)” and the TD50 (mouse, strain B6C3F1, males, by gavage, site: lung, lesion: alveolar/bronchiolar adenoma, dosed 78 weeks, study length 78 weeks) was 65 mg/kg/day (inactive). The TD50 (mouse, strain B6C3F1, males, by gavage, site: lung, lesion: alveolar/bronchiolar carcinoma, dosed 78 weeks, study length 78 weeks) was 227 mg/kg/day (inactive), the carcinogen call (rat, strain F344/DuCrj, females, by gavage, site: any site (literature study), lesion: several types, types named in the paper, dosed 104 weeks, study length 104 weeks) was “negative (inactive)” and the carcinogen call (rat, strain F344/DuCrj, females, by gavage, site: liver, lesion: hepatocellular adenoma, dosed 104 weeks, study length 104 weeks) was “negative (inactive)”. The carcinogen call (rat, strain F344/DuCrj, females, by gavage, site: liver, lesion: hepatocellular carcinoma, dosed 104 weeks, study length 104 weeks) was “negative (inactive)”, the carcinogen call (rat, strain F344/DuCrj, males, by gavage, site: any site (literature study), lesion: several types, types named in the paper, dosed 104 weeks, study length 104 weeks) was “negative (inactive)” and the TD50 (rat, strain F344/DuCrj, males, by gavage, site: liver, lesion: hepatocellular adenoma, dosed 104 weeks, study length 104 weeks) was 117 mg/kg/day (inactive). For the same molecule, the TD50 (rat, strain F344/DuCrj, males, by gavage, site: liver, lesion: hepatocellular carcinoma, dosed 104 weeks, study length 104 weeks) was 237 mg/kg/day (inactive).

`O=CNNC=O` was tested, and the TD50 (mouse, strain Swiss albino, females, in drinking water, site: liver, lesion: hepatoma, dosed 83 weeks, study length 83 weeks) was 7820 mg/kg/day (inactive), the TD50 (mouse, strain Swiss albino, females, in drinking water, site: liver, lesion: several types, types named in the paper, dosed 83 weeks, study length 83 weeks) was 89200 mg/kg/day and the TD50 (mouse, strain Swiss albino, females, in drinking water, site: lung, lesion: adenocarcinoma, dosed 83 weeks, study length 83 weeks) was 2170 mg/kg/day. The TD50 (mouse, strain Swiss albino, females, in drinking water, site: lung, lesion: adenoma, dosed 83 weeks, study length 83 weeks) was 561 mg/kg/day, the TD50 (mouse, strain Swiss albino, females, in drinking water, site: lung, lesion: several types, types named in the paper, dosed 83 weeks, study length 83 weeks) was 571 mg/kg/day and the TD50 (mouse, strain Swiss albino, males, in drinking water, site: liver, lesion: hepatoma, dosed 83 weeks, study length 83 weeks) was 11300 mg/kg/day (inactive). The TD50 (mouse, strain Swiss albino, males, in drinking water, site: liver, lesion: several types, types named in the paper, dosed 83 weeks, study length 83 weeks) was 8140 mg/kg/day, the TD50 (mouse, strain Swiss albino, males, in drinking water, site: lung, lesion: adenocarcinoma, dosed 83 weeks, study length 83 weeks) was 4530 mg/kg/day and the TD50 (mouse, strain Swiss albino, males, in drinking water, site: lung, lesion: adenoma, dosed 83 weeks, study length 83 weeks) was 779 mg/kg/day. It also gave a TD50 (mouse, strain Swiss albino, males, in drinking water, site: lung, lesion: several types, types named in the paper, dosed 83 weeks, study length 83 weeks) of 806 mg/kg/day.

`C=CCN(CC(C)=O)N=O` gave a TD50 (hamster, strain Syrian Golden, females, by gavage, site: liver, lesion: cholangiocarcinoma, dosed 40 weeks, study length 55 weeks) of 21.2 mg/kg/day, a TD50 (hamster, strain Syrian Golden, females, by gavage, site: liver, lesion: hepatocellular adenoma, dosed 40 weeks, study length 55 weeks) of 4.87 mg/kg/day and a TD50 (hamster, strain Syrian Golden, females, by gavage, site: liver, lesion: several types, types named in the paper, dosed 40 weeks, study length 55 weeks) of 3.78 mg/kg/day. The TD50 (hamster, strain Syrian Golden, females, by gavage, site: nasal mucosa, lesion: carcinoma, dosed 40 weeks, study length 55 weeks) was 1.36 mg/kg/day, the TD50 (hamster, strain Syrian Golden, females, by gavage, site: nasal mucosa, lesion: several types, types named in the paper, dosed 40 weeks, study length 55 weeks) was 1.19 mg/kg/day and the TD50 (rat, strain Fischer 344, females, in drinking water, site: esophagus, lesion: several types, types named in the paper, dosed 50 weeks, study length 85 weeks) was 1.25 mg/kg/day. It also gave a TD50 (rat, strain Fischer 344, females, in drinking water, site: liver, lesion: hepatocellular carcinoma, dosed 50 weeks, study length 85 weeks) of 0.335 mg/kg/day.

`OCC(O)CO` was tested, and the TD50 (rat, strain Long-Evans, both sexes, in feed, site: any site (literature study), lesion: several types, types named in the paper, dosed 105 weeks, study length 105 weeks) was 38300 mg/kg/day (inactive) and 12300 mg/kg/day (inactive).

In the case of `CN(N=O)C(=O)N[C@@H](C=O)[C@@H](O)[C@H](O)[C@H](O)CO`, the TD50 (mouse, strain Swiss, females, i.p., site: any site (literature study), lesion: benign tumor, dosed 26 weeks, study length 78 weeks) is reported as 0.188 mg/kg/day, the TD50 (mouse, strain Swiss, females, i.p., site: any site (literature study), lesion: malignant tumor, dosed 26 weeks, study length 78 weeks) is reported as 6.32 mg/kg/day and the TD50 (mouse, strain Swiss, females, i.p., site: any site (literature study), lesion: several types, types named in the paper, dosed 26 weeks, study length 78 weeks) is reported as 0.486 mg/kg/day. For the same molecule, the TD50 (mouse, strain Swiss, females, i.p., site: kidney, lesion: adenoma, dosed 26 weeks, study length 78 weeks) was 1.39 mg/kg/day, the TD50 (mouse, strain Swiss, females, i.p., site: lung, lesion: several types, types named in the paper, dosed 26 weeks, study length 78 weeks) was 0.193 mg/kg/day and the TD50 (mouse, strain Swiss, females, i.p., site: uterus, lesion: sarcoma, dosed 26 weeks, study length 78 weeks) was 13.9 mg/kg/day. It also gave a TD50 (mouse, strain Swiss, males, i.p., site: any site (literature study), lesion: benign tumor, dosed 26 weeks, study length 72 weeks) of 0.698 mg/kg/day, a TD50 (mouse, strain Swiss, males, i.p., site: any site (literature study), lesion: malignant tumor, dosed 26 weeks, study length 72 weeks) of 3.53 mg/kg/day and a TD50 (mouse, strain Swiss, males, i.p., site: any site (literature study), lesion: several types, types named in the paper, dosed 26 weeks, study length 72 weeks) of 0.217 mg/kg/day. For the same molecule, the TD50 (mouse, strain Swiss, males, i.p., site: kidney, lesion: tubular-cell adenoma, dosed 26 weeks, study length 72 weeks) was 2.44 mg/kg/day, the TD50 (mouse, strain Swiss, males, i.p., site: liver, lesion: several types, types named in the paper, dosed 26 weeks, study length 72 weeks) was 27.3 mg/kg/day and the TD50 (mouse, strain Swiss, males, i.p., site: lung, lesion: several types, types named in the paper, dosed 26 weeks, study length 72 weeks) was 0.462 mg/kg/day. It also gave a TD50 (rat, strain Charles River CD (Sprague-Dawley), females, i.p., site: any site (literature study), lesion: malignant tumor, dosed 26 weeks, study length 78 weeks) of 0.363 mg/kg/day, a TD50 (rat, strain Charles River CD (Sprague-Dawley), females, i.p., site: any site (literature study), lesion: several types, types named in the paper, dosed 26 weeks, study length 78 weeks) of 1.14 mg/kg/day and a TD50 (rat, strain Charles River CD (Sprague-Dawley), females, i.p., site: kidney, lesion: several types, types named in the paper, dosed 26 weeks, study length 78 weeks) of 1.27 mg/kg/day. It also gave a TD50 (rat, strain Charles River CD (Sprague-Dawley), females, i.p., site: liver, lesion: cavernous hemangioma, dosed 26 weeks, study length 78 weeks) of 5.63 mg/kg/day, a TD50 (rat, strain Charles River CD (Sprague-Dawley), females, i.p., site: liver, lesion: several types, types named in the paper, dosed 26 weeks, study length 78 weeks) of 4.43 mg/kg/day and a TD50 (rat, strain Charles River CD (Sprague-Dawley), females, i.p., site: mammary gland, lesion: carcinoma, dosed 26 weeks, study length 78 weeks) of 1.41 mg/kg/day. The TD50 (rat, strain Charles River CD (Sprague-Dawley), females, i.p., site: uterus, lesion: sarcoma, dosed 26 weeks, study length 78 weeks) was 2.46 mg/kg/day, the TD50 (rat, strain Charles River CD (Sprague-Dawley), males, i.p., site: any site (literature study), lesion: benign tumor, dosed 26 weeks, study length 78 weeks) was 16.8 mg/kg/day and the TD50 (rat, strain Charles River CD (Sprague-Dawley), males, i.p., site: any site (literature study), lesion: malignant tumor, dosed 26 weeks, study length 78 weeks) was 1.03 mg/kg/day. It also gave a TD50 (rat, strain Charles River CD (Sprague-Dawley), males, i.p., site: any site (literature study), lesion: several types, types named in the paper, dosed 26 weeks, study length 78 weeks) of 0.751 mg/kg/day, a TD50 (rat, strain Charles River CD (Sprague-Dawley), males, i.p., site: kidney, lesion: several types, types named in the paper, dosed 26 weeks, study length 78 weeks) of 0.776 mg/kg/day and a TD50 (rat, strain Charles River CD (Sprague-Dawley), males, i.p., site: liver, lesion: liver-cell carcinoma, dosed 26 weeks, study length 78 weeks) of 20.4 mg/kg/day.

— PubChem BioAssay AID1745844 (Carcinogenic Potency Database (CPDB), 2022)
